Source: ChEMBL document CHEMBL1145767, “Conformational restriction of methionyl tRNA synthetase inhibitors leading to analogues with potent inhibition and excellent gram-positive antibacterial activity” (Bioorg Med Chem Lett, 2003)
Converted amounts (≈) assume the structure as drawn.

Experiments:
Type in all cases: functional
Enterococcus faecalis [1] = experiment: Antibacterial activity against Enterococcus faecalis 1
Staphylococcus aureus [2] = experiment: Antibacterial activity against Staphylococcus aureus Oxford
Staphylococcus aureus [3] = experiment: Inhibitory activity against Staphylococcus aureus MRS
Staphylococcus aureus [4] = experiment: Antibacterial activity against Staphylococcus aureus
Enterococcus faecalis [5] = experiment: Antibacterial activity against Enterococcus faecalis
Enterococcus faecium = experiment: Antibacterial activity against Enterococcus faecium
[6] = tested on: Staphylococcus epidermidis; experiment: Antibacterial activity against Staphylococcus epidermidis

## Oc1cc(NC[C@H]2CCC[C@H]2NCc2ccc(Cl)c(Cl)c2)nc2ccccc12
Enterococcus faecalis [1]
  MIC: 8 µg/mL (≈ 19.2 µM)
Staphylococcus aureus [2]
  MIC: 16 µg/mL (≈ 38.4 µM)
Staphylococcus aureus [3]
  IC50: 18 nM

## Oc1cc(NC[C@@H]2CCC[C@H]2NCc2ccc(Cl)c(Cl)c2)nc2ccccc12
Enterococcus faecalis [1]
  MIC: 32 µg/mL (≈ 76.9 µM)
Staphylococcus aureus [2]
  MIC: > 64 µg/mL
Staphylococcus aureus [3]
  IC50: 700 nM

## Oc1cc(N[C@H]2CC[C@H](NCc3ccc(Cl)c(Cl)c3)CC2)nc2ccccc12
Enterococcus faecalis [1]
  MIC: > 64 µg/mL
Staphylococcus aureus [2]
  MIC: > 64 µg/mL
Staphylococcus aureus [3]
  IC50: 2300 nM

## Oc1cc(NC[C@H]2CCC[C@@H]2NCc2ccc(Cl)c(Cl)c2)nc2ccccc12
Enterococcus faecalis [1]
  MIC: 0.125 µg/mL (≈ 0.3 µM)
Staphylococcus aureus [2]
  MIC: 1 µg/mL (≈ 2.4 µM)
Staphylococcus aureus [3]
  IC50: 9 nM

## Oc1cc(NCc2ccccc2NCc2ccc(Cl)c(Cl)c2)nc2ccccc12
Enterococcus faecalis [1]
  MIC: > 64 µg/mL
Staphylococcus aureus [2]
  MIC: > 64 µg/mL
Staphylococcus aureus [3]
  IC50: 56 nM

## Oc1cc(NC[C@H]2OCC[C@@H]2NCc2ccc(Cl)c(Cl)c2)nc2ccccc12
Enterococcus faecalis [1]
  MIC: 4 µg/mL (≈ 9.56 µM)
Staphylococcus aureus [2]
  MIC: 64 µg/mL (≈ 153 µM)
Staphylococcus aureus [3]
  IC50: 78 nM

## Oc1cc(NC[C@@H]2CCC[C@@H]2NCc2ccc(Cl)c(Cl)c2)nc2ccccc12
Enterococcus faecalis [1]
  MIC: 1 µg/mL (≈ 2.4 µM)
Staphylococcus aureus [2]
  MIC: 8 µg/mL (≈ 19.2 µM)
Staphylococcus aureus [3]
  IC50: 100 nM

## CCOc1c(Br)cc(Br)cc1CN[C@H]1CCC[C@@H]1CNc1cc(O)c2ccccc2n1
Staphylococcus aureus [4]
  MIC90: 0.06 µg/mL (≈ 0.109 µM)
Enterococcus faecalis [5]
  MIC90: 0.03 µg/mL (≈ 0.0546 µM)
Enterococcus faecium
  MIC90: < 0.016 µg/mL
Enterococcus faecalis [1]
  MIC: < 0.06 µg/mL
Staphylococcus aureus [2]
  MIC: < 0.06 µg/mL
Staphylococcus aureus [3]
  IC50: 7.6 nM
[6]
  MIC90: 0.125 µg/mL (≈ 0.228 µM)

## Oc1cc(NC[C@H]2CCC[C@@H]2NCc2cc(Br)cc(Br)c2)nc2ccccc12
Enterococcus faecalis [1]
  MIC: < 0.06 µg/mL
Staphylococcus aureus [2]
  MIC: < 0.06 µg/mL
Staphylococcus aureus [3]
  IC50: 10 nM

## Oc1cc(N[C@H]2CCC[C@H](NCc3ccc(Cl)c(Cl)c3)C2)nc2ccccc12 (racemic)
Enterococcus faecalis [1]
  MIC: > 64 µg/mL
Staphylococcus aureus [2]
  MIC: > 64 µg/mL
Staphylococcus aureus [3]
  IC50: 43 nM

## Oc1cc(NC[C@H]2CC[C@@H]2NCc2ccc(Cl)c(Cl)c2)nc2ccccc12 (racemic)
Enterococcus faecalis [1]
  MIC: 0.25 µg/mL (≈ 0.621 µM)
Staphylococcus aureus [2]
  MIC: 2 µg/mL (≈ 4.97 µM)
Staphylococcus aureus [3]
  IC50: 12 nM

## Oc1cc(NC[C@H]2CC[C@H]2NCc2ccc(Cl)c(Cl)c2)nc2ccccc12 (racemic)
Enterococcus faecalis [1]
  MIC: 16 µg/mL (≈ 39.8 µM)
Staphylococcus aureus [2]
  MIC: > 64 µg/mL
Staphylococcus aureus [3]
  IC50: 110 nM

## Oc1cc(N[C@@H]2CCC[C@H](NCc3ccc(Cl)c(Cl)c3)C2)nc2ccccc12 (racemic)
Enterococcus faecalis [1]
  MIC: 32 µg/mL (≈ 76.9 µM)
Staphylococcus aureus [2]
  MIC: 64 µg/mL (≈ 154 µM)
Staphylococcus aureus [3]
  IC50: 150 nM

## Oc1cc(NCC2=CCCC2NCc2ccc(Cl)c(Cl)c2)nc2ccccc12 (racemic)
Enterococcus faecalis [1]
  MIC: > 64 µg/mL
Staphylococcus aureus [2]
  MIC: > 64 µg/mL
Staphylococcus aureus [3]
  IC50: 10 nM
